From patent US7541141B2, “Method of using estrogen-related receptor alpha (ERRα) status to determine prognosis, treatment strategy and predisposition to breast cancer, and method of using ERRα as a therapeutic target for the treatment of breast cancer” (Wisconsin Alumni Research Foundation, priority 1997, dated 2009)

T1: ERRα1 (Homo sapiens, UniProt P11474)
T1 construct: expressed in transfected cells; host or cells: COS cells (whole-cell extract)
T1 sequence (P11474 1-423): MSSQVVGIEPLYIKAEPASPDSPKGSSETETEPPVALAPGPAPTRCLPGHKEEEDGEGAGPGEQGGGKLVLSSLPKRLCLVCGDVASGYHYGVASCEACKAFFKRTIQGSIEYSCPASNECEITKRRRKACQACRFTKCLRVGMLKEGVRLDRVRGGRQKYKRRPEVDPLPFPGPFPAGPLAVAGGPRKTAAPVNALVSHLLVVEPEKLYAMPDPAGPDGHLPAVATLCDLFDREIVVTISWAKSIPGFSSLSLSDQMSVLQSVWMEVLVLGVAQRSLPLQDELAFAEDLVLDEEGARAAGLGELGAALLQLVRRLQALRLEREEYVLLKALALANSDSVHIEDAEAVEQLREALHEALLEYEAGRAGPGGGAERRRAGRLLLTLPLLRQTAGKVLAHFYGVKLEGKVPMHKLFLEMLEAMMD

B1: ERRα11-173: carboxyl-terminal-deleted ERRα1 variant (residues 1-173) retaining A/B and DNA binding domains, lacking E/F domains (protein)
chain: MSSQVVGIEPLYIKAEPASPDSPKGSSETETEPPVALAPGPAPTRCLPGHKEEEDGEGAGPGEQGGGKLVLSSLPKRLCLVCGDVASGYHYGVASCEACKAFFKRTIQGSIEYSCPASNECEITKRRRKACQACRFTKCLRVGMLKEGVRLDRVRGGRQKYKRRPEVDPLPFP
B2: ERRα176-423: amino-terminal-deleted ERRα1 variant (residues 76-423) lacking the A/B domain (protein)
chain: MKRLCLVCGDVASGYHYGVASCEACKAFFKRTIQGSIEYSCPASNECEITKRRRKACQACRFTKCLRVGMLKEGVRLDRVRGGRQKYKRRPEVDPLPFPGPFPAGPLAVAGGPRKTAAPVNALVSHLLVVEPEKLYAMPDPAGPDGHLPAVATLCDLFDREIVVTISWAKSIPGFSSLSLSDQMSVLQSVWMEVLVLGVAQRSLPLQDELAFAEDLVLDEEGARAAGLGELGAALLQLVRRLQALRLEREEYVLLKALALANSDSVHIEDAEAVEQLREALHEALLEYEAGRAGPGGGAERRRAGRLLLTLPLLRQTAGKVLAHFYGVKLEGKVPMHKLFLEMLEAMMD

Each molecule was assayed against T1, ERRα1 (assay: Quantitative competition EMSA of unlabeled oligodeoxynucleotides against 32P-labeled reference consensus ERRE). Settings: relative to reference consensus ERRE; reciprocal of fold molar excess of competitor reducing shifted probe by 50%; COS whole cell extracts.
Format: binding
Method: Quantitative gel-mobility-shift assays: DNA binding was assayed in 20 μl of a buffer containing 10 mM HEPES (pH 7.5), 2.5 mM MgCl2, 50 μM EDTA, 1 mM dithiothreitol, 6% glycerol and 100 ng/μl of poly(dI-dC)·poly(dI-dC). Competition binding assays included unlabeled competitor oligonucleotide as well. […] Supershift assays contained 1 μl of a 1:10 dilution of whole antiserum. All components were mixed prior to the addition of protein. The final mixtures were incubated on ice for 15 minutes, followed by 25° C. for 15 minutes prior to separation by electrophoresis at 4° C. for 2 hours through a non-denaturing 4% polyacrylamide gel at 160 volts. Quantitation was performed with a PhosphorImager (Molecular Dynamics). The relative affinities of different sequences for binding by the protein were determined from the moles of unlabeled competitor oligonucleotide needed to reduce the fraction of probe shifted to 50%.
Knowing which genes are transcriptionally modulated by ERR may help to clarify ERR's potential role in breast cancer. To identify potential ERR-responsive genes, we examined the transcriptional regulatory regions of genes known to be involved in breast cancer for sequences capable of being bound by ERR. […] This sequence is a half-site of the consensus palindromic estrogen response element (ERE, 5′-AGGTCAnnnTGACCT (SEQ ID NO:32)) with a 3-base pair extension at the 5′ end. Searching sequence databases (the EPD Eukaryotic Promoter Database available on line from the Swiss Institute of Bioinformatics (17), and Genbank available on line from the National Center for Biotechnology Information, National Library of Medicine, National Institute of Health) facilitated the location of this consensus and similar non-consensus ERREs in human gene promoters, which were selected and tested experimentally for whether they contained authentic ERR-binding sites. Using quantitative competitive EMSAs performed similarly as described in FIG. 5 of Example 1, we identified many authentic ERR-binding sites that exist in the promoters of important genes implicated in breast cancer. These sequences and ERR's affinity for binding these sites relative to a reference consensus ERRE are shown in Table 3 (Location, distance of the ERRE sequence from the gene's transcriptional start site; Ref, reference of the gene's prognostic status or relevance to human breast cancer).
With “AAAATTGTTTTGTCTAGGTCATTTGCATTTTCA (chemistry not given here) [PgR site 1]” the “Relative binding affinity (RBA) of ERRα1 for DNA sequence” value (“Relative binding affinity (RBA)” for short) was 0.14.
“AAAGGAACTTTCCCAAGGTCACAGAGCTGAGCT (chemistry not given here) [ErbB2]” was tested, and the “Relative binding affinity (RBA)” value was 1.01.
With “AGAACATCCCTTTTAAGGTCAGAACAAAGGTAT (chemistry not given here) [BRCA2]” the “Relative binding affinity (RBA)” value was 0.08.
In the case of “ATGTTTGGTATGAAAAGGTCACATTTTATATTC (chemistry not given here) [ERα]”, the “Relative binding affinity (RBA)” value is reported as 0.11.
In the case of “CAAATAATGGGCTGAAGGTGAACTATCTTTACT (chemistry not given here) [EGF]”, the “Relative binding affinity (RBA)” value is reported as 0.14.
For “CAAATTTGAAACTAAAGGTCACAGGCTGCTTTA (chemistry not given here) [Pr1 site 2]”, the “Relative binding affinity (RBA)” value was 0.33.
With “CCTCAGAGTGGCTCAGGGTCAGAGAAGGTAGAG (chemistry not given here) [Pr1 site 3]” the “Relative binding affinity (RBA)” value was 0.07.
“CCTGAGACTCTACCAAGGTCAGAAATGCTGCAA (chemistry not given here) [aromatase]” was tested, and the “Relative binding affinity (RBA)” value was 0.17.
In the case of “CTCCCATCTCACTTAAGGTCAAAGCCAGGGTCC (chemistry not given here) [elk1]”, the “Relative binding affinity (RBA)” value is reported as 0.22.
For “CTGTCGGCAGGAACAAGGTCACCCCTTGGCGTT (chemistry not given here) [IGF2 site 2]”, the “Relative binding affinity (RBA)” value was 0.25.
For “GCGAGGAAAGCGTGAAGGTGATTTCAGTTAATT (chemistry not given here) [cyclin D1]”, the “Relative binding affinity (RBA)” value was 0.07.
With “GCTCCGGCTCGCTGAAGGTCACAGCCGAGGCGA (chemistry not given here) [IGF1R]” the “Relative binding affinity (RBA)” value was 0.36.
With “GGGAGTTCAGGGTAAAGGTCACGGGGCCGGGGC (chemistry not given here) [hMDM2]” the “Relative binding affinity (RBA)” value was 0.35.
“GGTGCTCCCACTTAGAGGTCACGCGCGGCGTCG (chemistry not given here) [ERβ]” was tested, and the “Relative binding affinity (RBA)” value was 0.54.
In the case of “GGTGGACGCTGCTGAAGGTGAGCGAGACCCCGG (chemistry not given here) [IGF2 site 3]”, the “Relative binding affinity (RBA)” value is reported as 0.06.
“GTAATTGCTGTACGAAGGTCAGAATCGCTACCT (chemistry not given here) [BRCA1]” was tested, and the “Relative binding affinity (RBA)” value was 0.17.
“GTAGGACCTGGATTAAGGTCAGGTTGGAGGAGA (chemistry not given here) [pS2 site 2]” was tested, and the “Relative binding affinity (RBA)” value was 0.12.
In the case of “TCCCTTCCCCCTGCAAGGTCACGGTGGCCACCC (chemistry not given here) [pS2 site 1]”, the “Relative binding affinity (RBA)” value is reported as 0.49.
In the case of “TCCTAAGGACTGTCAAGGTCATCAAATACAAGG (chemistry not given here) [PgR site 3]”, the “Relative binding affinity (RBA)” value is reported as 1.45.
For “TCCTTGCTAAACCCAAGGTCATAAATCTTTTCT (chemistry not given here) [PgR site 2]”, the “Relative binding affinity (RBA)” value was 0.91.
In the case of “TCGAGAGCAGTGGCGATTTGTCAAGGTCACACAGTGAG (DNA, backbone not given here) [Reference ERRE, reference compound]”, the “Relative binding affinity (RBA)” value is reported as 1.00.
“TGGCATATTGGGTGAAGGTCAAGGGAGTGGCTT (chemistry not given here) [Cathepsin D]” was tested, and the “Relative binding affinity (RBA)” value was 0.49.
For “TGTCCATTTTCTTCTAGGTCAACCCCAATGGTA (chemistry not given here) [Pr1 site 1]”, the “Relative binding affinity (RBA)” value was 0.06.

The molecules below were run on ERE-dependent transcription in MCF-7 cells (assay: p3xERE-TK-luc luciferase reporter, transient transfection). Settings: 0.12 or 0.25 μg expression plasmid, whole FBS, 48 h.
Format: cell-based, human
Method: Transient Transfections and Luciferase Assays: To assess the role ERRα plays in regulating transcription of an ERE-containing promoter, MCF-7 or HeLa cells grown in 12-well tissue culture plates were co-transfected in parallel with 0.5 μg of pTK-luc versus p3xERE-TK-luc along with the indicated amounts of the empty cloning vector pcDNA3.1, the ERRα1 expression plasmid pcDNA3.1-hERRα1, or mutant variants thereof. Transfections were performed with the aid of the TransIT LT1 transfection reagent (PanVera, Madison, Wis.) as previously described (35). To examine the effects of ER ligands, cells were maintained in stripped medium for 48 h before transfection and the addition of 17β-estradiol (E2) (Sigma) or the pure anti-estrogen ICI-182,780 (Astra Zeneca, London, UK) dissolved in ethanol and diluted in medium to obtain the indicated concentrations. Cells were harvested 48 h post-transfection, and lysates were assayed for luciferase activity normalized to protein concentration as previously described (36).
ERRα Represses Transcription in MCF-7 Cells: Because ERRα can interfere with the binding of ERα to this ERE, might it affect estrogen-responsive transcription? To answer this question, we co-transfected ERα-positive mammary MCF-7 cells in parallel with p3xERE-TK-luc, a reporter plasmid containing three tandem copies of this ERE (FIG. 14A) or the ERE-negative control plasmid, pTK-luc, together with 0.12 or 0.25 μg of the ERRα1 expression plasmid, pcDNA3.1-hERRα1, or the empty parental expression plasmid, pcDNA3.1. After incubation for 48 h in medium containing whole FBS, the cells were harvested and assayed for luciferase activity. The presence of the EREs conferred an about 150-fold increase in transcriptional activity above the level observed in the cells transfected with the ERE-negative reporter plasmid (FIG. 14B). […] Thus, ERRα inhibits the estrogen-responsive activation of transcription from this ERE-containing promoter in this ER-positive MCF-7 cell line.
ERRα Modulates Estrogen-responsiveness in MCF-7 Cells: To directly examine the effect of ERRα on the response to estrogen, MCF-7 cells were cultured in medium containing estrogen-free charcoal-stripped FBS and cotransfected as described above but in the absence or presence of E2. […] Once again, overexpression of ERRα repressed ERE-dependent transcription approximately 3-fold while having little if any effect on transcription of the control reporter (FIG. 15A).
For B1, the “Repression of ERE-dependent transcription by overexpression” value was “failed to repress”.
B2 was tested, and the “Repression of ERE-dependent transcription by overexpression” value was 2-3 fold.

Same assay, conditions: 1×10^−8 M E2, charcoal-stripped FBS
`C[C@]12CC[C@@H]3c4ccc(O)cc4CC[C@H]3[C@@H]1CC[C@@H]2O` [E2, 17β-estradiol, reference compound] was tested, and the “Additional stimulation of ERE-dependent transcription over level with 10^−10 M E2” value was 3 fold.

Same assay, conditions: 1×10^−8 M E2, charcoal-stripped FBS, 48 h
`C[C@]12CC[C@@H]3c4ccc(O)cc4CC[C@H]3[C@@H]1CC[C@@H]2O` [E2, 17β-estradiol, reference compound] was tested, and the “ERE-dependent transcription above activity without exogenous E2” value was “approximately 30 fold”.

Same assay, conditions: 1×10^−10 M E2, charcoal-stripped FBS, 48 h
`C[C@]12CC[C@@H]3c4ccc(O)cc4CC[C@H]3[C@@H]1CC[C@@H]2O` [E2, 17β-estradiol, reference compound] was tested, and the “Induction of transcriptional activity of ERE-containing reporter above level without exogenous E2” value was “approximately 10 fold”.
